From ChEMBL document CHEMBL5236634, “Membrane-Targeting Neolignan-Antimicrobial Peptide Mimic Conjugates to Combat Methicillin-Resistant Staphylococcus aureus (MRSA) Infections” (J Med Chem, 2022)
Values after ≈ are worked out from the molar mass of the structure shown.

Columns and labels:
Enterococcus faecalis = assay: Antibacterial activity against Enterococcus faecalis ATCC 29212 assessed as inhibition of bacterial growth incubated for 16 to 20 hrs by CLSI based microdilution method; assay type: functional; conditions: time 16-20 hrs
Salmonella enterica [1] = assay: Antibacterial activity against Salmonella enterica 8389 assessed as inhibition of bacterial growth incubated for 16 to 20 hrs by CLSI based microdilution method; assay type: functional; conditions: time 16-20 hrs
[2] = Selectivity index, ratio of HC50 for hemolytic activity in sheep RBC to MIC for antibacterial activity against Staphylococcus aureus ATCC 29213; assay type: toxicity; conditions: sheep red blood cells
Micrococcus luteus = assay: Antibacterial activity against Micrococcus luteus assessed as inhibition of bacterial growth incubated for 16 to 20 hrs by CLSI based microdilution method; assay type: functional; conditions: time 16-20 hrs
Staphylococcus aureus = assay: Antibacterial activity against Staphylococcus aureus ATCC 29213 assessed as inhibition of bacterial growth incubated for 16 to 20 hrs by CLSI based microdilution method; assay type: functional; conditions: time 16-20 hrs
[3] = Hemolytic activity in sheep RBC incubated for 1 hr by absorbance based analysis; assay type: toxicity, cell-based, Ovis aries, Erythrocyte; conditions: sheep red blood cells
Salmonella enterica [4] = assay: Antibacterial activity against Salmonella enterica H9812 assessed as inhibition of bacterial growth incubated for 16 to 20 hrs by CLSI based microdilution method; assay type: functional; conditions: time 16-20 hrs
Escherichia coli = assay: Antibacterial activity against Escherichia coli ATCC 25922 assessed as inhibition of bacterial growth incubated for 16 to 20 hrs by CLSI based microdilution method; assay type: functional; conditions: time 16-20 hrs

Structure (SMILES) | MIC (Enterococcus faecalis) [mg/L] | MIC (Salmonella enterica [1]) [mg/L] | selectivity ratio [2] | MIC (Micrococcus luteus) [mg/L] | MIC (Staphylococcus aureus) [mg/L] | HC50 at 1 h [3] [µg/mL] | MIC (Salmonella enterica [4]) [mg/L] | MIC (Escherichia coli) [mg/L]
C=CCc1cccc(Oc2ccc(C(=O)CC)cc2)c1OCCC[N+](C)(C)CC(=O)NCCC.[Br-] | 64 | 64 | > 20 | 64 | 64 | > 1280 | 32 | 64
C=CCc1cccc(Oc2ccc(C(=O)CC)cc2)c1OCC[N+](C)(C)CC(=O)NCC.[Br-] | 32 | 128 | 15.9 | 32 | 32 | 509 | 128 | 64
C=CCc1cccc(Oc2ccc(C(=O)CC)cc2)c1OCCCC[N+](C)(C)CC(=O)N(CC)CC.[Br-] | 32 | > 128 | > 40 | 64 | 32 | > 1280 | > 128 | 64
C=CCc1cccc(Oc2ccc(C(=O)CC)cc2)c1OCC[N+](C)(C)CC(=O)N(CCCC)CCCC.[Br-] | 8 | 128 | 104 | 32 | 8 | 834 | 128 | 64
C=CCc1cccc(Oc2ccc(C(=O)CC)cc2)c1OCCC[N+](C)(C)CC(=O)N(CCC)CCC.[Br-] | 16 | 64 | 53.3 | 32 | 16 | 854 | 128 | 64
CCCCCCNC(=O)C[N+](C)(C)CCCOc1ccccc1Oc1ccc(C(=O)CC)cc1.[Br-] | – | – | 134 | – | 4 | 536 | – | > 128
Br.C=CCc1cccc(Oc2ccc(C(=O)CC)cc2)c1OCCCSC(=N)N | 64 | 64 | 55.8 | 32 | 16 | 894 | 64 | 32
C=CCc1cccc(Oc2ccc(C(=O)CC)cc2)c1OCCCC[N+](C)(C)CC(=O)N1CCCC1.[Br-] | 16 | 128 | 36.2 | 32 | 16 | 579 | 128 | 64
C=CCc1cccc(Oc2ccc(C(=O)CC)cc2)c1OCCCC[N+](C)(C)CC(=O)NCCCCCC.[Br-] | 16 | 64 | 160 | 64 | 4 | 642 | 32 | 32
C=CCc1cccc(Oc2ccc(C(=O)CC)cc2)c1OCC[N+](C)(C)CC(=O)N1CCOCC1.[Br-] | 64 | 64 | > 20 | 16 | 64 | > 1280 | 64 | 128
C=CCc1cccc(Oc2ccc(C(=O)CC)cc2)c1OCCCC[N+](C)(C)CC(=O)N1CCOCC1.[Br-] | 64 | > 128 | 9 | 64 | 64 | 578 | > 128 | > 128
C=CCc1cccc(Oc2ccc(C(=O)CC)cc2)c1OCCCC[N+](C)(C)CC(=O)N(CCC)CCC.[Br-] | 32 | 128 | 29.1 | 64 | 32 | 933 | 128 | 64
CCCCCCNC(=O)C[N+](C)(C)CCOc1ccccc1Oc1ccc(C(=O)CC)cc1.[Br-] | – | – | 57.4 | – | 16 | 918 | – | > 128
C[C@@H](O)[C@H]1C(=O)N2C(C(=O)O)=C(S[C@@H]3CN[C@H](C(=O)N(C)C)C3)[C@H](C)[C@H]12 [MEROPENEM] | – | 0.125 (≈ 0.326 µM) | – | – | – | – | 0.125 (≈ 0.326 µM) | 0.125 (≈ 0.326 µM)
C=CCc1cccc(Oc2ccc(C(=O)CC)cc2)c1OCCCC[N+](C)(C)CC(=O)N(CCCC)CCCC.[Br-] | 16 | 32 | 388 | 32 | 2 | 776 | 64 | 32
C=CCc1cccc(Oc2ccc(C(=O)CC)cc2)c1OCCCC[N+](C)(C)CC(=O)NCCCC.[Br-] | 16 | 32 | 138 | 16 | 8 | 1110 | 128 | 64
C=CCc1cccc(Oc2ccc(C(=O)CC)cc2)c1OCCC[N+](C)(C)CC(=O)N1CCCC1.[Br-] | 32 | 64 | 32.8 | 32 | 16 | 526 | 64 | 128
C=CCc1cccc(Oc2ccc(C(=O)CC)cc2)c1OCCC[N+](C)(C)CC(=O)NCCCCC.[Br-] | 8 | 8 | 172 | 32 | 4 | 690 | > 128 | 16
C=CCc1cccc(Oc2ccc(C(=O)CC)cc2)c1OCC[N+](C)(C)CC(=O)NCCCC.[Br-] | 64 | 128 | 35.9 | 64 | 32 | 1150 | 64 | 64
C=CCc1cccc(Oc2ccc(C(=O)CC)cc2)c1OCCC[N+](C)(C)CC(=O)N(CC)CC.[Br-] | 32 | 64 | 22.9 | 128 | 32 | 733 | 32 | 64
C=CCc1cccc(Oc2ccc(C(=O)CC)cc2)c1OCC[N+](C)(C)CC(=O)N(CCC)CCC.[Br-] | 16 | 32 | 138 | 16 | 8 | 1110 | 64 | 64
C=CCc1cccc(Oc2ccc(C(=O)CC)cc2)c1OCCC[N+](C)(C)CC(=O)NCC.[Br-] | 64 | > 128 | 7.8 | 64 | 64 | 501 | > 128 | 64
C=CCc1cccc(Oc2ccc(C(=O)CC)cc2)c1OCCC[N+](C)(C)CC(=O)N1CCOCC1.[Br-] | 64 | > 128 | 21.1 | 64 | 32 | 674 | 64 | > 128
C=CCc1cccc(Oc2ccc(C(=O)CC)cc2)c1OCC[N+](C)(C)CC(=O)N1CCCC1.[Br-] | 64 | > 128 | 17 | 32 | 32 | 543 | 64 | 128
C=CCc1cccc(Oc2ccc(C(=O)CC)cc2)c1OCCCC[N+](C)(C)CC(=O)NCC.[Br-] | 128 | 32 | 12.2 | 128 | 64 | 785 | 64 | 64
